According to patent US10800806B2, “Sterol derivatives and use thereof for treating diseases involving transformed astrocyte cells or for treating malignant haemopathies” (BETA INNOV, priority 2012, dated 2020):
Entries after “also recorded” stand apart in the source; their conditions may differ.

What was measured:
C6 cells = assay: Anti-GBM activity in vitro on cultures of C6 cells (cell counting, protein assay, MTT test); type: cell-based, rat; conditions: 15 μm, ethanol 3%
Method: Plastic flat-bottomed 96-well culture plates (NUNC, USA) treated for cell culture (Sigma-Aldrich, ref. 114754) are used; 1500 cells are seeded per well in 200 μl of culture medium. At the time of treatment, 100 μl of pure culture medium, 100 μl of culture medium containing ethanol, or liposomes, or 100 μl of culture medium containing the active ingredients are added per well; the final volume of the culture medium, after treatment, is therefore 300 μl for all the wells.
The cultures are incubated in a Sanyo incubator (Japan, model MCO-19AlC-UV) at 37° C. and in an atmosphere with 5% CO2 and saturated in humidity. The cells are observed with an inverted microscope (Nikon Eclipse TS100, Japan) and the photographs are taken with a camera (DIGITAL camera with c-mount; LABOVER, France). The culture hood is a microbiological safety hood MSC (thermo SCIENTIFIC, model HERA SAFE KS12, France).
The type C6 cell line was obtained by Benda et al. (16) from rat brain tumours, induced by N-methylnitrosourea. This cell type is used as “in vitro” and “in vivo” model for evaluating anti-GBM potential. The lines originate from the former Strasbourg Neurochemistry Centre (U44 INSERM and UPR 416 CNRS).
The culture medium is made up of 70% Minimum Essential Medium (MEM; (Fischer Scientifique, ref. 61100) and 30% Hanks solution (SIGMA, ref. H 9269). The following are added to the culture medium: foetal calf serum (FCS; Fischer Scientifique, ref. 10108165) at a final concentration of 5% (v/v), an antibiotic solution of ciprofloxacin hydrochloride 5 μg/mL (EUROMEDEX, ref. UC5074) and a solution of Fungizone 2.5 μg/mL (INVITROGEN, ref. 15290-026). The doubling time of this cell type is 17 h. • GBM lines of human origin
The active ingredients are either dissolved in absolute ethanol (AnalaR, NORMAPUR, VWR, France) or in the form of a liposomal solution, such as 10 μl of the stock solutions diluted in 990 μl and then added to the culture wells (200 μl of culture medium) giving concentrations of 30.0, 15.0, 7.5 and 3.3 μM (final volume of culture medium per well BI-GBM: 300 μl).
When the active ingredients are in ethanolic solution, the culture medium contains […] ethanol (v/v).
A method of cell counting on photographs was used.
For example, in the case of the cultures in 96-well plates and as a function of the magnification of the microscope used (objectives×10 or ×20, oculars×10), a photograph taken represents a field of view with a diameter equal to 1/5 of the diameter of a well. Therefore the total number of cells in a well is equal to […] the number of cells per photograph. This technique was compared with a standard technique (trypsinization of the cell layer, centrifugation of the cells, suspension of the cells in physiological saline solution and counting with a THOMA cell) in the case of the C6 cells. The results obtained are identical for both methods.
The culture medium is withdrawn from each well and 50 μl of Laemmli buffer (0.1 ml of Tris, 0.8 ml of glycerol, 1.6 mL of 10% SDS, 8 ml q.s.f ultrapure water) is added per well.
In control wells, 10 μl of a solution of bovine serum albumin range (crystallized BSA, Sigma) is added; the range is from 0 to 20 μg per well. The wells are then supplemented with 40 μl of Laemmli buffer. Finally, 200 μl of solution of BCA reagent is added (Pierce, USA; BCA Protein Assay Kit; ThemoScientific, France).
The culture plates are incubated for 30 min at 37° C. The optical density for each well is read and quantified by a plate reader (BioRad, USA, iMark Microplate reader 12222) at 570 nm.
This test makes it possible to detect the cellular respiration, especially the mitochondrial respiration. The stock solution of tetrazolium salt MTT (3-(4,5-dimethylthiazol-2-yl)-2,5-diphenyl tetrazolium bromide, Sigma-Aldrich, USA, ref. M5655) is prepared with 10 mg of MIT/ml of PBS buffer (phosphate-buffered saline, SIGMA, ref. D 1408). […]

[1] = test system: Neuroblastoma (line SH-SY5Y, ATCC-CRL-2266); assay: Activity in vitro on human neuroblastomas; type: cell-based; conditions: 22 μM once, concentrated liposomal form, 7 days of treatment
Method: They were obtained from the ATCC collection (Ref. ATCC-CRL-2266). The culture conditions are based on the recommendations in the ATCC information leaflet. • Chronic Myelomonocytic Leukaemia (CMML)
The neuroblastomas were treated with empty liposomes (controls) or with liposomes containing molecule 1.b or 2.b, 24 h after starting the culture. The cells are treated once with 22 μM of molecule 1.b or 22 μM of molecule 2.b. The liposomal form is concentrated.
For the control cells, the upper left hand photograph marked with the letter A was taken after 7 days of treatment; the lower left hand photograph marked with the letter B was taken after 28 days of treatment.
For the cells treated with the concentrated liposomal molecule 1.b, the photograph marked with the letter C (in the middle, at the top) was taken after 7 days of treatment and the photograph marked with the letter D (in the middle, at the bottom) after 28 days of treatment. For the cells treated with the concentrated liposomal molecule 2.b, the upper right hand photograph marked with the letter E was taken after 7 days of treatment.

[2] = test system: CD133+ stem cells (U87-MG cultures); assay: Immunolabelling of the CD133+ stem cells with the A/B peroxidase system; type: cell-based, human; conditions: for CD133+ cells, percentage relative to the controls: 30 μM in ethanolic form
Method: The anti-CD133 (poly, Abnova), anti-GFAP (poly, Sigma), anti-NFL (mono, Santa Cruz) and anti-fibroblast (ERTR7, Santa Cruz) primary antibodies are diluted to 1/100 in the case of the first three antibodies and to 1/50 in the case of the last.
The secondary antibodies corresponding to recognition of the primary antibodies are anti-rabbit antibodies coupled to peroxidase (goat, Sigma), anti-mouse coupled to Dylight 488 (sheep, Sigma), anti-mouse coupled to Dylight 488 (sheep, Sigma) and anti-rat coupled to FITC (rabbit, Sigma). The dilutions are 1/4000, 1/1000, 1/4000 and 1/400 respectively.
The cells are permeabilized for 5 min with 0.1% Triton X-100 (Sigma) in PBS (Fisher Scientific). The nonspecific sites are blocked with 2% BSA (Sigma) in PBS. Incubations are carried out for 1 h at ambient temperature, 48 h at 4° C., 24 h at 4° C. and 1 h at ambient temperature for the anti-CD133, anti-GFAP, anti-NFL and anti-Fibroblast antibodies respectively. Incubation with the secondary antibodies is carried out for 1 h at ambient temperature. The CD133 positive cells are detected by the DAB/H2O2 system (Sigma), and observed with an optical microscope.
The immunolabelling is carried out as described above (section II, A).

Row | Structure (SMILES) | Live residual cells (C6 cells) | toxicity to neuroblastoma cells compared to the control cells [1] | CD133+ cells, percentage relative to the controls ([2]; 4 days of treatment) | CD133+ cells, percentage relative to the controls ([2]; 22 days of treatment) | destruction of the CD133+ stem cells ([2]; ethanolic form, 22 days of treatment) | appearance of CD133+ stem cells after replacing the culture medium with fresh drug-free medium ([2]; medium replaced at 22 days)
1 | CC(C)CCCC(C)C1CCC2C3C(OC(=O)OC(C)(C)C)C=C4CC(OC(=O)C5COC(C)(C)O5)CCC4(C)C3CCC12C (stereo not drawn) [Molecule 2.a, 7-((tert-butoxycarbonyl)oxy)-10,13-dimethyl-17-(6-methylheptan-2-yl)-2,3,4,7,8,9,10,11,12,13,14,15,16,17-tetradecahydro-1H-cyclopenta[a]phenanthren-3-yl 2,2-dimethyl-1,3-dioxolane-4-carboxylate] | 100% |  |  |  |  | 
2 | CC(=O)OC1C=C2CC(OC(=O)C3COC(C)(C)O3)CCC2(C)C2CCC3(C)C(C(C)CCCC(C)C)CCC3C12 (stereo not drawn) [Molecule 2.b, 7-acetoxy-10,13-dimethyl-17-(6-methylheptan-2-yl)-2,3,4,7,8,9,10,11,12,13,14,15,16,17-tetradecahydro-1H-cyclopenta[a]phenanthren-3-yl 2,2-dimethyl-1,3-dioxolane-4-carboxylate] |  | no viable cell is observed | 100% | 0% | completely destroyed; also recorded: completely destroys the stem cells | does not lead to the appearance of CD133+ stem cells
